Reference: patent US20240270762A1, “PENICILLIN-BINDING PROTEIN INHIBITORS” (priority 2021, published 2024)
In brackets after ≈: the same amount, converted by molar mass.

Columns and labels:
[1] = target: T1, PBP3 from Escherichia coli (K-12) (Escherichia coli, UniProt P0AD68); assay: Bocillin-FL fluorescence polarization competition binding, E. coli PBP3
T1 construct: made in house
Method in brief: (§1)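 Purified PBP was preincubated with inhibitor (E. coli PBP3 1.5 μM, 30 min; P. aeruginosa PBP3 0.75 μM, A. baumannii PBP3 0.2 μM and PBP1a 1 μM, 15 min), then Bocillin-FL (0.1 μM; 0.05 μM for PBP1a) added and FP read up to 60 min. EC50 = 50% loss of bound probe.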

[2] = target: T2, PBP3 from Pseudomonas aeruginosa (PAO1) (Pseudomonas aeruginosa, UniProt G3XD46); assay: Bocillin-FL fluorescence polarization competition binding, P. aeruginosa PBP3; conditions: Binding affinity to P. aeruginosa PBP3; fluorescence polarization competition binding assay using Bocillin-FL; read-out: P. aeruginosa PBP3 Potency
T2 construct: made in house
Method in brief: as §1

E. coli ATCC 25922 = assay: microbe, parasite or virus in culture; type: cell-based; conditions: Escherichia coli, ATCC25922, read-out: MIC E. coli 25922
E. coli AG100A = assay: Broth microdilution MIC in CAMHB; type: cell-based; conditions: Escherichia coli, read-out: MIC E. coli AG100A
K. pneumoniae 848844 = assay: microbe, parasite or virus in culture; type: cell-based; conditions: Klebsiella pneumoniae, 848844, read-out: MIC K. pneumoniae 848844
A. baumannii ATCC 19606 = assay: microbe, parasite or virus in culture; type: cell-based; conditions: Acinetobacter baumannii, ATCC19606, read-out: MIC, A. baumannii ATCC 19606
[3] = tested on: P. aeruginosa (ΔmexAB-oprM); assay: Broth microdilution MIC in CAMHB; type: cell-based; conditions: Pseudomonas aeruginosa; read-out: MIC P. aeruginosa ΔmexAB-oprM
[4] = tested on: N. gonorrhoeae ATCC 49226; assay: Liquid broth MIC in Fastidious broth; conditions: Neisseria gonorrhoeae, ATCC49226, read-out: Minimum Inhibitory Concentration (MIC), N. gonorrhoeae ATCC 49226
N. gonorrhoeae WHO M = assay: Liquid broth MIC in Fastidious broth; conditions: Neisseria gonorrhoeae, read-out: Minimum Inhibitory Concentration (MIC), N. gonorrhoeae WHO M
N. gonorrhoeae WHO X = assay: Liquid broth MIC in Fastidious broth; conditions: Neisseria gonorrhoeae, read-out: Minimum Inhibitory Concentration (MIC), N. gonorrhoeae WHO X
N. gonorrhoeae WHO Q = assay: Liquid broth MIC in Fastidious broth; conditions: Neisseria gonorrhoeae, read-out: Minimum Inhibitory Concentration (MIC), N. gonorrhoeae WHO Q
N. gonorrhoeae CDC-0197 = assay: Liquid broth MIC in Fastidious broth; conditions: Neisseria gonorrhoeae, CDC0197, read-out: Minimum Inhibitory Concentration (MIC), N. gonorrhoeae CDC-0197

T1 sequence (P0AD68 1-577): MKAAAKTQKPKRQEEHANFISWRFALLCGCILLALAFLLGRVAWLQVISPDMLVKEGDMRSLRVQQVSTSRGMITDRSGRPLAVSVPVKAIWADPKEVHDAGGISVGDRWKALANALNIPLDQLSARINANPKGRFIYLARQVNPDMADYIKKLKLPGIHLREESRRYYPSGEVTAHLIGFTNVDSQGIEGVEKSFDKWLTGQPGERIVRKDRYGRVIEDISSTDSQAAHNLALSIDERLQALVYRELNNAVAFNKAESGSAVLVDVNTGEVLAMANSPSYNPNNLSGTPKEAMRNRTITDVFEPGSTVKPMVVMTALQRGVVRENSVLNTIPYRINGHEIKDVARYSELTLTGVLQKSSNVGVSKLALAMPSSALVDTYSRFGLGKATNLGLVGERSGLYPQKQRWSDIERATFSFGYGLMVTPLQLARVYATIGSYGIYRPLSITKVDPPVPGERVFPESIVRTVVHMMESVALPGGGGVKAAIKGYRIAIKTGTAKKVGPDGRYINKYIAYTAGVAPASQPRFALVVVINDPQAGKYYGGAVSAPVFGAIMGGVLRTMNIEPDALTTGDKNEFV
T2 sequence (G3XD46 whole entry): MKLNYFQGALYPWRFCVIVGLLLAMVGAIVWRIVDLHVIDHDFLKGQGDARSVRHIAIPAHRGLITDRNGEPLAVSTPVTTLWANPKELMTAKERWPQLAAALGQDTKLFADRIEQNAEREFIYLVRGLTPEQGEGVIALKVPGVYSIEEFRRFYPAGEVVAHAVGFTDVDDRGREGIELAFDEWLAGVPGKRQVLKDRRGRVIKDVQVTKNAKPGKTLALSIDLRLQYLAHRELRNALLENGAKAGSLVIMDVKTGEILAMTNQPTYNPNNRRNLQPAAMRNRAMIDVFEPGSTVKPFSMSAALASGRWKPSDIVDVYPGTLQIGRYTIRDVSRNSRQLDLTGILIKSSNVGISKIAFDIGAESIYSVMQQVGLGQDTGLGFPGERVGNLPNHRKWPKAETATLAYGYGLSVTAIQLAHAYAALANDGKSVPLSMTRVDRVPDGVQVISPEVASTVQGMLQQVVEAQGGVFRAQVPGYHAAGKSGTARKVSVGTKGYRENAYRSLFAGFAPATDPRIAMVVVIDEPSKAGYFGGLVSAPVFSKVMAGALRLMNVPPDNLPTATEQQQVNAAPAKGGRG

Structure (SMILES) | EC50 [1] [µM] | IC50 [2] [µM] | MIC (E. coli ATCC 25922) [µg/mL] | MIC (E. coli AG100A) [µg/mL] | MIC (K. pneumoniae 848844) [µg/mL] | MIC (A. baumannii ATCC 19606) [µg/mL] | MIC [3] [µg/mL] | MIC [4] [µg/mL] | MIC (N. gonorrhoeae WHO M) [µg/mL] | MIC (N. gonorrhoeae WHO X) [µg/mL] | MIC (N. gonorrhoeae WHO Q) [µg/mL] | MIC (N. gonorrhoeae CDC-0197) [µg/mL]
O=C(O)c1cccc2c1OB(O)[C@@H](NC(=O)C(NC(=O)C1CCCCC1)c1ccc(P(=O)(O)O)cc1)C2 (stereo partly drawn) [Example 31, (3R)-3-(2-(cyclohexanecarboxamido)-2-(4-phosphonophenyl)acetamido)-2-hydroxy-3,4-dihydro-2H-benzo[e][1,2]oxaborinine-8-carboxylic acid] | 50 to 250 | 10 to 50 | > 128 | > 128 | > 128 | > 128 | > 128 | 16 to 32 (≈ 30.2 to 60.3 µM) | 4 to 8 (≈ 7.54 to 15.1 µM) | 16 to 32 (≈ 30.2 to 60.3 µM) | 16 to 32 (≈ 30.2 to 60.3 µM) | 16 to 32 (≈ 30.2 to 60.3 µM)
O=C(NC(C(=O)N[C@H]1Cc2cccc(C(=O)O)c2OB1O)c1ccc(P(=O)(O)O)cc1)c1ccccn1 (stereo partly drawn) [Example 32, (3R)-2-hydroxy-3-(2-(4-phosphonophenyl)-2-(picolinamido)acetamido)-3,4-dihydro-2H-benzo[e][1,2]oxaborinine-8-carboxylic acid] | 10 to 50 | < 10 | > 128 | 32 to 64 (≈ 60.9 to 122 µM) | > 128 | > 128 | 32 to 64 (≈ 60.9 to 122 µM) | 1 to 2 (≈ 1.9 to 3.81 µM) | < 1 | 16 to 32 (≈ 30.5 to 60.9 µM) | 1 to 2 (≈ 1.9 to 3.81 µM) | 1 to 2 (≈ 1.9 to 3.81 µM)
CC(=O)N1CCC[C@@H]1C(=O)N[C@H](C(=O)N[C@H]1Cc2cccc(C(=O)O)c2OB1O)c1ccc(P(=O)(O)O)cc1 [Example 33, (3R)-3-(2-((R)-1-acetylpyrrolidine-2-carboxamido)-2-(4-phosphonophenyl)acetamido)-2-hydroxy-3,4-dihydro-2H-benzo[e][1,2]oxaborinine-8-carboxylic acid] | 50 to 250 | 10 to 50 | > 128 | > 128 | > 128 | > 128 | > 128 | 16 to 32 (≈ 28.6 to 57.2 µM) | 4 to 8 (≈ 7.15 to 14.3 µM) | 16 to 32 (≈ 28.6 to 57.2 µM) | 16 to 32 (≈ 28.6 to 57.2 µM) | 16 to 32 (≈ 28.6 to 57.2 µM)
CS(=O)(=O)N1CCC[C@@H]1C(=O)N[C@H](C(=O)N[C@H]1Cc2cccc(C(=O)O)c2OB1O)c1ccc(P(=O)(O)O)cc1 [Example 34, (R)-2-hydroxy-3-((S)-2-((R)-1-(methylsulfonyl)pyrrolidine-2-carboxamido)-2-(4-phosphonophenyl)acetamido)-3,4-dihydro-2H-benzo[e][1,2]oxaborinine-8-carboxylic acid] | 50 to 250 | 50 to 250 | > 128 | > 128 | > 128 | > 128 | > 128 | 16 to 32 (≈ 26.9 to 53.8 µM) | 4 to 8 (≈ 6.72 to 13.4 µM) | 16 to 32 (≈ 26.9 to 53.8 µM) | 16 to 32 (≈ 26.9 to 53.8 µM) | 16 to 32 (≈ 26.9 to 53.8 µM)
CS(=O)(=O)N1CCC[C@@H]1C(=O)N[C@@H](C(=O)N[C@H]1Cc2cccc(C(=O)O)c2OB1O)c1ccc(P(=O)(O)O)cc1 [Example 35, (R)-2-hydroxy-3-((R)-2-((R)-1-(methylsulfonyl)pyrrolidine-2-carboxamido)-2-(4-phosphonophenyl)acetamido)-3,4-dihydro-2H-benzo[e][1,2]oxaborinine-8-carboxylic acid] | 10 to 50 | < 10 | > 128 | > 128 | > 128 | > 128 | > 128 | 1 to 2 (≈ 1.68 to 3.36 µM) | < 1 | 16 to 32 (≈ 26.9 to 53.8 µM) | 4 to 8 (≈ 6.72 to 13.4 µM) | 4 to 8 (≈ 6.72 to 13.4 µM)
O=C(O)c1cccc2c1OB(O)[C@@H](NC(=O)[C@@H](NC(=O)N1CCCCC1=O)c1ccc(P(=O)(O)O)cc1)C2 [Example 36, (R)-2-hydroxy-3-((S)-2-(2-oxopiperidine-1-carboxamido)-2-(4-phosphonophenyl)acetamido)-3,4-dihydro-2H-benzo[39e][1,2]oxaborinine-8-carboxylic acid] | 50 to 250 | 50 to 250 | > 128 | > 128 | > 128 | > 128 | > 128 | 16 to 32 (≈ 29.3 to 58.7 µM) | 1 to 2 (≈ 1.83 to 3.67 µM) | 16 to 32 (≈ 29.3 to 58.7 µM) | 16 to 32 (≈ 29.3 to 58.7 µM) | 16 to 32 (≈ 29.3 to 58.7 µM)
O=C(O)c1cccc2c1OB(O)[C@@H](NC(=O)[C@H](NC(=O)N1CCCCC1=O)c1ccc(P(=O)(O)O)cc1)C2 [Example 37, (R)-2-hydroxy-3-((R)-2-(2-oxopiperidine-1-carboxamido)-2-(4-phosphonophenyl)acetamido)-3,4-dihydro-2H-benzo[e][1,2]oxaborinine-8-carboxylic acid] | < 10 | < 10 | > 128 | 32 to 64 (≈ 58.7 to 117 µM) | > 128 | > 128 | 8 to 16 (≈ 14.7 to 29.3 µM) | < 1 | < 1 | 16 to 32 (≈ 29.3 to 58.7 µM) | 1 to 2 (≈ 1.83 to 3.67 µM) | 1 to 2 (≈ 1.83 to 3.67 µM)
CN1CCCN(C(=O)NC(C(=O)N[C@H]2Cc3cccc(C(=O)O)c3OB2O)c2ccc(P(=O)(O)O)cc2)C1=O (stereo partly drawn) [Example 38, (3R)-2-hydroxy-3-(2-(3-methyl-2-oxohexahydropyrimidine-1-carboxamido)-2-(4-phosphonophenyl)acetamido)-3,4-dihydro-2H-benzo[e][1,2]oxaborinine-8-carboxylic acid] | 10 to 50 | < 10 | > 128 | 32 to 64 (≈ 57.1 to 114 µM) | > 128 | > 128 | 32 to 64 (≈ 57.1 to 114 µM) | 1 to 2 (≈ 1.78 to 3.57 µM) | < 1 | 16 to 32 (≈ 28.6 to 57.1 µM) | 4 to 8 (≈ 7.14 to 14.3 µM) | 1 to 2 (≈ 1.78 to 3.57 µM)
O=C(O)c1cccc2c1OB(O)[C@@H](NC(=O)[C@@H](NC(=O)N1CCNC1=O)c1ccc(P(=O)(O)O)cc1)C2 [Example 39, (R)-2-hydroxy-3-((S)-2-(2-oxoimidazolidine-1-carboxamido)-2-(4-phosphonophenyl)acetamido)-3,4-dihydro-2H-benzo[e][1,2]oxaborinine-8-carboxylic acid] | 50 to 250 | 10 to 50 | > 128 | > 128 | > 128 | > 128 | > 128 | 1 to 2 (≈ 1.88 to 3.76 µM) | < 1 | 16 to 32 (≈ 30.1 to 60.1 µM) | 4 to 8 (≈ 7.52 to 15 µM) | 1 to 2 (≈ 1.88 to 3.76 µM)
O=C(O)c1cccc2c1OB(O)[C@@H](NC(=O)[C@H](NC(=O)N1CCNC1=O)c1ccc(P(=O)(O)O)cc1)C2 [Example 40, (R)-2-hydroxy-3-((R)-2-(2-oxoimidazolidine-1-carboxamido)-2-(4-phosphonophenyl)acetamido)-3,4-dihydro-2H-benzo[e][1,2]oxaborinine-8-carboxylic acid] | < 10 | < 10 | 32 to 64 (≈ 60.1 to 120 µM) | 8 to 16 (≈ 15 to 30.1 µM) | > 128 | 32 to 64 (≈ 60.1 to 120 µM) | 8 to 16 (≈ 15 to 30.1 µM) | < 1 | < 1 | 1 to 2 (≈ 1.88 to 3.76 µM) | < 1 | < 1
